Numbered stars: 1 amine (or outer) side, 2 acyl side, 3 side chain; on linkers, the order of the positions; unused ones are H or OH. Square brackets hold non-standard residues; d marks the D form. Peptide text beside a SMILES is read from it. * marks the point of attachment. NH(2S-methylbutyl) = CC[C@H](C)CN*; 2Naphthoyl = O=C(c1ccc2ccccc2c1)*; X1 = O=C(Cc1ccc(N[*:1])cc1)[*:2]; PhAc = O=C(Cc1ccccc1)*; X2 = CCC[C@H](C)CN*
Columns and labels:
[1] = molecular target: T1, Atrial natriuretic peptide receptor 3 (Homo sapiens, UniProt P17342); assay: Displacement of [125I]- ANP from the Atrial Natriuretic Peptide Clearance Receptor.; assay type: tissue-based, Cardiac atrium
T1 sequence (P17342 whole entry): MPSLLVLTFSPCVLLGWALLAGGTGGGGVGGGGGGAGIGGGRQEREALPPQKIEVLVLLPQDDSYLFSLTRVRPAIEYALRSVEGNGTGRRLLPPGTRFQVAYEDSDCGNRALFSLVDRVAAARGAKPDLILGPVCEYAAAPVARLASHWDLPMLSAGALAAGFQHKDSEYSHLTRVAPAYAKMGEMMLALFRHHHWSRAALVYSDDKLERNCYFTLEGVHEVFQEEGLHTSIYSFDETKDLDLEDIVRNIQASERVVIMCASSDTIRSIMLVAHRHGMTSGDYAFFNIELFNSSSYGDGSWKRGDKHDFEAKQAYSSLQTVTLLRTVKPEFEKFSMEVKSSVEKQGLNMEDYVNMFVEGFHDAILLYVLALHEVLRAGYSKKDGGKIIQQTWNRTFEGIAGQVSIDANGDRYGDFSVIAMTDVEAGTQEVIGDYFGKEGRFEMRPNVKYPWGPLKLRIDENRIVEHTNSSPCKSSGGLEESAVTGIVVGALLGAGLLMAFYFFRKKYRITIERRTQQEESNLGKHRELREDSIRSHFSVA

[2] = molecular target: T2, Atrial natriuretic peptide receptor 1 (Homo sapiens, UniProt P16066); assay: Displacement of [125I]- ANP from the Atrial natriuretic peptide receptor A.; assay type: tissue-based, Cardiac atrium
T2 sequence (P16066 whole entry): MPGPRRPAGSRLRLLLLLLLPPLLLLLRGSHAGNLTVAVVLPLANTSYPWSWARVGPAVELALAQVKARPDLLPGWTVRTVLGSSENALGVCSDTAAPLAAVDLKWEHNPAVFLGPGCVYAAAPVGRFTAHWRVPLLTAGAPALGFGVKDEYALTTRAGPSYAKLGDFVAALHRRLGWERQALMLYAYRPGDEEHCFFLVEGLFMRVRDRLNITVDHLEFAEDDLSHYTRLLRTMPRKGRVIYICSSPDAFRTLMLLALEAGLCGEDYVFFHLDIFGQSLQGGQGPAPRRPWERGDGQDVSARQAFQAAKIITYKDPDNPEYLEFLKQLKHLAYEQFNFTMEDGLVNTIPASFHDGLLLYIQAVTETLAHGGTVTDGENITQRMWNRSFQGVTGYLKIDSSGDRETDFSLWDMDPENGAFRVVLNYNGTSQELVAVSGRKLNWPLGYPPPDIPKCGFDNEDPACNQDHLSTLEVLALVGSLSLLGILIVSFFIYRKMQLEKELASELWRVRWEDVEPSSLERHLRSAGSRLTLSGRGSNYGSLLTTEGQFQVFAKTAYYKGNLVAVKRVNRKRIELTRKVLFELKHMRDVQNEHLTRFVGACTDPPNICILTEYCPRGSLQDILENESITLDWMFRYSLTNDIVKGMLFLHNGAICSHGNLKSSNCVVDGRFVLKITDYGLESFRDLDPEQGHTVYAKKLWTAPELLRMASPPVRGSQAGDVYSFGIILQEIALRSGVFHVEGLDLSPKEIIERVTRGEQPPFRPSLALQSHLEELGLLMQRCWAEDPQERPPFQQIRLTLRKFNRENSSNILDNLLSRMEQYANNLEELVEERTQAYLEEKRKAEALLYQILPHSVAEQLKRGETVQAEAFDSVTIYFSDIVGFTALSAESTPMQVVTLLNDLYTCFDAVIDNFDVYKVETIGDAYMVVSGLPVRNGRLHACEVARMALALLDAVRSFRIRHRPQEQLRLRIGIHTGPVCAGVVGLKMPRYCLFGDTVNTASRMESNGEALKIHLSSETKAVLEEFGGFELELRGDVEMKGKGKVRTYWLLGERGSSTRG

[3] = Ratio of binding affinity for ANP-CR receptor and ANP-A receptor

| Compound | Ki [1] | Ki [2] | Selectivity [3] |
| --- | --- | --- | --- |
| CC[C@H](C)CNC(=O)[C@H](C)NC(=O)[C@H](CC(=O)O)NC(=O)[C@@H](NC(=O)[C@H](C)NC(=O)Cc1ccc(NC(=O)c2ccc3ccccc3c2)cc1)[C@@H](C)CC (2Naphthoyl-[X1]AIDA-{NH(2S-methylbutyl)}) | 0.065 µM | 0.065 µM |  |
| CCC[C@H](C)CNC(=O)[C@H](CCCN=C(N)N)NC(=O)[C@H](CC(=O)O)NC(=O)[C@@H](NC(=O)[C@H](CCCN=C(N)N)NC(=O)Cc1ccccc1)[C@@H](C)CC (PhAc-RIDR-X2) | 0.539 µM | 0.539 µM |  |
| CC[C@H](C)CNC(=O)[C@H](C)NC(=O)[C@H](CC(=O)O)NC(=O)[C@@H](NC(=O)[C@H](CCCN=C(N)N)NC(=O)Cc1ccc(NC(=O)c2ccc3ccccc3c2)cc1)[C@@H](C)CC (2Naphthoyl-[X1]RIDA-{NH(2S-methylbutyl)}) | 0.0004 µM | 0.0004 µM |  |
| CC[C@H](C)[C@@H]1NC(=O)[C@H](CCCN=C(N)N)NC(=O)[C@H](C)NC(=O)[C@H]([C@@H](C)CC)NC(=O)[C@H](CCCN=C(N)N)NC(=O)CNC(=O)CNC(=O)[C@H](Cc2ccccc2)NC(=O)[C@H](N)CSSC[C@H](C(=O)O)NC(=O)CNC(=O)[C@H](CC(C)C)NC(=O)CNC(=O)[C@H](CO)NC(=O)[C@H](CCC(N)=O)NC(=O)[C@H](C)NC(=O)CNC1=O | 0.087 µM | 0.087 µM |  |
| CC[C@H](C)CNC(=O)[C@H](CCCN=C(N)N)NC(=O)[C@H](CC(=O)O)NC(=O)[C@@H](NC(=O)[C@H](CCCN=C(N)N)NC(=O)Cc1ccc(NC(=O)c2ccc3ccccc3c2)cc1)[C@@H](C)CC (2Naphthoyl-[X1]RIDR-{NH(2S-methylbutyl)}) | 0.00048 µM | > 0.01 µM | > 20000 |
| CC[C@H](C)[C@H](NC(=O)[C@H](CCCNC(=N)N)NC(=O)Cc1ccc(NC(=O)c2ccc3ccccc3c2)cc1)C(=O)N[C@@H](CC(=O)O)C(=O)N[C@@H](CCCNC(=N)N)C(N)=O (2Naphthoyl-[X1]RIDR-NH2) | 2.6 µM | 2.6 µM |  |
| CCC[C@H](C)CNC(=O)[C@H](CCCNC(=N)N)NC(=O)[C@H](CC(=O)O)NC(=O)[C@@H](NC(=O)[C@H](CCCNC(=N)N)NC(C)=O)[C@@H](C)CC (Ac-RIDR-X2) | 2.9 µM | 2.9 µM |  |
| CC[C@H](C)[C@@H]1NC(=O)[C@H](CCCNC(=N)N)NC(=O)[C@H](CC(=O)O)NC(=O)[C@H]([C@@H](C)CC)NC(=O)[C@H](CCCNC(=N)N)NC(=O)CNC(=O)CNC(=O)[C@H](Cc2ccccc2)NC(=O)[C@@H](NC(=O)[C@H](CO)NC(=O)[C@H](CO)NC(=O)[C@@H](N)CCCNC(=N)N)CSSC[C@@H](C(=O)O)NC(=O)[C@H](C)NC(=O)CNC1=O | 0.00164 µM |  |  |
| CC[C@H](C)CNC(=O)[C@H](CCCNC(=N)N)NC(=O)[C@H](C)NC(=O)[C@@H](NC(=O)[C@H](CCCNC(=N)N)NC(=O)Cc1ccc(NC(=O)c2ccc3ccccc3c2)cc1)[C@@H](C)CC (2Naphthoyl-[X1]RIAR-{NH(2S-methylbutyl)}) | 0.062 µM | 0.062 µM |  |
| CC[C@H](C)[C@@H]1NC(=O)[C@H](C)NC(=O)CNC(=O)CNC(=O)[C@H](Cc2ccccc2)NC(=O)[C@H](N)CSSC[C@H](C(=O)O)NC(=O)CNC(=O)[C@H](CC(C)C)NC(=O)CNC(=O)[C@H](CO)NC(=O)[C@H](CCC(N)=O)NC(=O)[C@H](C)NC(=O)CNC(=O)[C@H]([C@@H](C)CC)NC(=O)[C@H](CCCN=C(N)N)NC(=O)[C@H](CC(=O)O)NC1=O | 0.00049 µM | 0.00049 µM |  |
| CC[C@H](C)[C@@H]1NC(=O)[C@H](CCCN=C(N)N)NC(=O)[C@H](CC(=O)O)NC(=O)[C@H]([C@@H](C)CC)NC(=O)[C@H](CCCN=C(N)N)NC(=O)CNC(=O)CNC(=O)[C@H](Cc2ccccc2)NC(=O)[C@H](NC(=O)[C@H](CO)NC(=O)[C@H](CO)NC(=O)[C@@H](N)CCCN=C(N)N)CSSC[C@H](C(=O)O)NC(=O)[C@H](C)NC(=O)CNC1=O |  | > 0.01 µM | 6100 |
| CC[C@H](C)CNC(=O)[C@H](CCCN=C(N)N)NC(=O)[C@H](CC(=O)O)NC(=O)[C@H](C)NC(=O)[C@H](CCCN=C(N)N)NC(=O)Cc1ccc(NC(=O)c2ccc3ccccc3c2)cc1 (2Naphthoyl-[X1]RADR-{NH(2S-methylbutyl)}) | 0.68 µM | 0.68 µM |  |
| CC[C@H](C)CNC(=O)[C@H](CCCN=C(N)N)NC(=O)[C@H](CC(=O)O)NC(=O)[C@@H](NC(=O)[C@H](C)NC(=O)Cc1ccc(NC(=O)c2ccc3ccccc3c2)cc1)[C@@H](C)CC (2Naphthoyl-[X1]AIDR-{NH(2S-methylbutyl)}) | 0.0003 µM | 0.0003 µM |  |

From ChEMBL document CHEMBL1133291, “The discovery of non-basic atrial natriuretic peptide clearance receptor antagonists. Part 1” (Bioorg Med Chem Lett, 2000)
